Results: patent US8697692B2, “Pyrrolo [3,2-c] pyridine-4-one 2-indolinone protein kinase inhibitors” (Shanghai Hengrui Pharmaceutical Co., Ltd., priority 2006, dated 2014)

system: A431 cell; test: Cell Proliferation Inhibition EGFR Assay (SRB method); assay type: cell-based, homo sapient; conditions: Homo sapiens, A-431; A431 cells, 72 hours exposure, Sulforhodamine B; read-out: IC50 (A431)
Text: The following in vitro assay may be used to determine the level of activity and effect of different compounds of the present invention on the proliferation inhibition (cell toxic) of […] growth factor receptor (EGFR) high expressing homo […] cancer cell-A431 cell. The cellular assay described here measure the compounds of their anti-angiogenesis and proliferation inhibition activity and effect through EGFR on the cancer cells in vitro. The effect and activity is represented by the IC50 value that kills the cancer cell. […] The homo […] highly express EGFR are chosen and seeded to 96-well cell culture plate at a suitable concentration (exp 5000 cells/ml medium). The cells then are cultured in carbon dioxide (CO2) incubator till when they confluence to about 85%. Then, the cell culture medium is replaced by fresh one with tested compounds added in it at serial concentrations (general 6 to 7 concentrations). Then the cells are put back to the culture and cultured for continuous 72 hours. 72 hours later, the cell exposed to compounds and control cell are assayed for their proliferation using Sulforhodamine B (SRB) method. Compounds IC50 on tested cells are calculated by the data of inhibition rates of serial concentrations of the tested compounds. • a. Dimethyl sulfoxide (Sinophma chemical reagent company, catalog No. T20050806) • b. A431 cells (Purchased from Institute of biochemistry and cell biology) • c. Falcon 100 mm cell culture plates (Baton Dickison Labware, Baton Dickison and company, • Catalog No. 18677) • d. coming 96-well culture cluster (Corning Incorporated, Catalog No. 3599) • e. Fisher Pipette (Fisher scientific, Catalog No. 03-692-164) • f. DMEM/F12 cell medium (Gibco, Catalog No. 12400-024) • g. Fetal bovine serum, origin from Australia (Gibco, Catalog No. 10099-141) • h. […] Sulforhodamine B (Sigma, Catalog No. 3520-42-1) • k. Acetic Acid (Sinophma chemical reagent company, Catalog No. T20060508) • l. Trichloroacetic Acid (Sinophma chemical reagent company, Catalog No. T20060305) • m. Tris base (Amresco, Catalog No. 0826) • n. Class II A/B3 Biological safety cabinet (ThermoForma Catalog No. HB0053 03) • o. Series II water jacketed CO2 incubator (ThermoForma Model: 3111) • p. Centrifuge (Fisher Scientific Marathon 8 k, Catalog No. 0027-02) • q. Novastar Plate reader (BMG Labtech, Catalog No. 700 0081) • r. Orbital Shaker (Qilinbeier, Catalog No. TS-1) Protocol: […] Growing seeded 96-well plates at 37° C., 5% CO2, till 85% confluence. • 4. Prepare compounds stock solution, using DMSO solve candidate compounds to a concentration of 20 mM. […] Use cell culture medium (in this case, DMEM/F12+10% FBS) to dilute the compounds solution prepared above. Each DMSO serial concentration compound solution is diluted by 20 times with culture medium by adding 5 μl DMSO compound solution to 95 μl culture medium, then mix well by vortex. This promise that the DMSO concentration at that the A431 cell will exposed to will not surpass 0.5%. • 6. […] Each well added 180 μl medium, then add 20 μl medium solution of tested compounds prepared at step 5 to each well. For control group cell, add 20 μl culture medium containing 0.5% pure DMSO. […] Each 96-well plate, we can test 3 compounds with a control cell group. • 7. Put the culture plates back to incubator, culture for 72 hours at 37° C., 5% CO2. • 8. 72 hours later, remove cultures from incubator into sterile work area. • 9. Prepare fixative (50% Trichloroacetic Acid-TCA) by adding reagent grade water to the TCA, fix the cells by gently layering […] of cold TCA solution on top of the growth medium. • 10. Incubate plates for 1 hour at 4° C. and then rinse with water several times to remove TCA, serum proteins, etc. Plates are air dried and stored until use. Bland background optical density is measured in wells incubated with growth medium without cells. • 11. Use 10% acetic acid solution to prepare 0.4% Sulforhodamine B solution. Add 50 μl sulforhodamine B solution to each well of 96-well plates. • 12. […]

How did the IC50 turn out when `CCN(CC)CCN1CCc2[nH]c(/C=C3\C(=O)Nc4c(N)cc(F)cc43)c(C)c2C1=O` [Example 4] was run?
The IC50 was 12600 nM.

`CCN(CC)CCN1CCc2[nH]c(/C=C3\C(=O)Nc4c(NC=O)cc(F)cc43)c(C)c2C1=O` [Example 5, N-{3-[5-(2-Diethylamino-ethyl)-3-methyl-4-oxo-4,5,6,7-tetrahydro-1H-pyrrolo[3,2-c]pyridine-2-ylmethylene]-5-fluoro-2-oxo-2,3-dihydro-1H-indol-7-yl}-formamide] was tested. Which IC50 did it give?
Its IC50 is 1380 nM.

system: HUVEC cell; test: Cell Proliferation Inhibition VEGF-R2 Assay (SRB method); assay type: cell-based, homo sapient; conditions: Homo sapiens; HUVEC cells, 72 hours exposure, Sulforhodamine B; read-out: IC50 (VEGFR/HUVEC)
Text: The following in vitro assay may be used to determine the level of activity and effect of different compounds of the present invention on the proliferation inhibition (cell toxic) of endothelium growth factor receptor (VEGFR) high expressing homo […] cancer cell-HUVEC cell. The cellular assay described here measure the compounds of their anti-angiogenesis and proliferation inhibition activity and effect through […] on the cancer cells in vitro. The effect and activity is represented by the IC50 value that kills the cancer cell. […] The homo […] highly express […] are chosen and seeded to 96-well cell culture plate at a suitable concentration (exp 5000 cells/ml medium). The cells then are cultured in carbon dioxide (CO2) incubator till when they confluence to about 85%. Then, the cell culture medium is replaced by fresh one with tested compounds added in it at serial concentrations (general 6 to 7 concentrations). Then the cells are put back to the culture and cultured for continuous 72 hours. 72 hours later, the cell exposed to compounds and control cell are assayed for their proliferation using Sulforhodamine B (SRB) method. […] Dimethyl sulfoxide (Sinophma chemical reagent company, catalog No. T20050806) • b. HUVEC cells (Purchased from Institute of biochemistry and cell biology) • c. […] Acetic Acid (Sinophma chemical reagent company, Catalog No. T20060508) • l. Trichloroacetic Acid (Sinophma chemical reagent company, Catalog No. T20060305) • m. […] Class II A/B3 Biological safety cabinet (ThermoForma Catalog No. HB0053-03) • o. […] Centrifuge (Fisher Scientific Marathon 8 k, Catalog No. 0027-02) • q. Novastar Plate reader (BMG Labtech, Catalog No. 700-0081) • r. […] Growing seeded 96-well plates at 37° C., 5% CO2, till 85% confluence. • 4. Prepare compounds stock solution, using DMSO solve candidate compounds to a concentration of 20 mM. […] Use cell culture medium (in this case, DMEM/F12+10% FBS) to dilute the compounds solution prepared above. Each DMSO serial concentration compound solution is diluted by 20 times with culture medium by adding 5 μl DMSO compound solution to 95 μl culture medium, then mix well by vortex. […] After HUVEC cell has attached to the dish bottom and confluence about 85%, change the culture medium with fresh DMEM/F12 plus 10% FBS. Each well added 180 μl medium, then add 20 μl medium solution of tested compounds prepared at step 5 to each well. For control group cell, add 20 μl culture medium containing 0.5% pure DMSO. […] Each 96-well plate, we can test 3 compounds with a control cell group. • 7. Put the culture plates back to incubator, culture for 72 hours at 37° C., 5% CO2. • 8. 72 hours later, remove cultures from incubator into sterile work area. • 9. Prepare fixative (50% Trichloroacetic Acid-TCA) by adding reagent grade water to the TCA, fix the cells by gently layering 50 μl of cold TCA solution on top of the growth medium. • 10. Incubate plates for 1 hour at 4° C. and then rinse with water several times to remove TCA, serum proteins, etc. Plates are air dried and stored until use. Bland background optical density is measured in wells incubated with growth medium without cells. • 11. Use 10% acetic acid solution to prepare 0.4% Sulforhodamine B solution. Add 50 μl sulforhodamine B solution to each well of 96-well plates. • 12. Allow cells to stain for 30 minutes. • 13. Prepared the wash solution of […] acetic acid. At the end of the staining period, the stain is removed and the cells rinsed quickly with 1% acetic acid. Repeat until unincorporated dye is removed. Keep wash times to a minimum to reduce desorption of protein-bound dye. After being rinsed, the cultures are air dried until no moisture is visible. • 14. The incorporated dye is then solubilized in a volume of Sulforhodamine B assay Solubilization solution (10 mM Tris) equal to the original volume of culture medium. Allow cultures to stand for 5 minutes at room temperature.

`CCN(CC)CCN1CCc2[nH]c(/C=C3\C(=O)Nc4c(N)cc(F)cc43)c(C)c2C1=O` [Example 4] was tested. Which IC50 did it give?
The IC50 was 3600 nM.

Which IC50 does the source give for `CCN(CC)CCN1CCc2[nH]c(/C=C3\C(=O)Nc4c(NC=O)cc(F)cc43)c(C)c2C1=O` [Example 5, N-{3-[5-(2-Diethylamino-ethyl)-3-methyl-4-oxo-4,5,6,7-tetrahydro-1H-pyrrolo[3,2-c]pyridine-2-ylmethylene]-5-fluoro-2-oxo-2,3-dihydro-1H-indol-7-yl}-formamide] here?
The IC50 was 10500 nM.

For `CCN(CC)CCN1CCc2[nH]c(/C=C3\C(=O)Nc4ccc(NS(C)(=O)=O)cc43)c(C)c2C1=O` [Example 10, N-{3-[5-(2-Diethylamino-ethyl)-3-methyl-4-oxo-4,5,6,7-tetrahydro-1H-pyrrolo[3,2-c]pyridine-2-ylmethylene]-2-oxo-2,3-dihydro-1H-indol-5-yl}-methanesulfonamide], which IC50 is on record?
The IC50 was 360 nM.

Which IC50 does the source give for `CCN(CC)CCN1CCc2[nH]c(/C=C3\C(=O)Nc4ccc(NC(C)=O)cc43)c(C)c2C1=O` [Example 11, N-{3-[5-(2-Diethylamino-ethyl)-3-methyl-4-oxo-4,5,6,7-tetrahydro-1H-pyrrolo[3,2-c]pyridine-2-ylmethylene]-2-oxo-2,3-dihydro-1H-indol-5-yl}-acetamide] here?
Its IC50 is 170 nM.

With `Cc1c(/C=C2\C(=O)Nc3ccc(Br)cc32)[nH]c2c1C(=O)N(CCN1CCOCC1)CC2` [Example 17, 2-(5-Bromo-2-oxo-1,2-dihydro-indol-3-ylidenemethyl)-3-methyl-5-(2-mopholin-4-yl-ethyl)-1,5,6,7-tetrahydro-pyrrolo[3,2-c]pyridin-4-one] as the molecule, how does the IC50 read?
Its IC50 is 2260 nM.

`CC(=O)Nc1cc2c(cc1F)/C(=C/c1[nH]c3c(c1C)C(=O)N(CCN1CCOCC1)CC3)C(=O)N2` [Example 19, N-{5-Fluoro-3-[3-methyl-5-(2-morpholin-4-yl-ethyl)-4-oxo-4,5,6,7-tetrahydro-1H-pyrrolo[3,2-c]pyridine-2-ylmethylene]-2-oxo-2,3-dihydro-1H-indol-6-yl}-acetamide] was tested. Which IC50 did it give?
The IC50 was 2560 nM.

For `Cc1c(/C=C2\C(=O)Nc3cc(N)c(F)cc32)[nH]c2c1C(=O)N(CCN1CCOCC1)CC2` [Example 20, 2-(6-Amino-5-fluoro-2-oxo-1,2-dihydro-indol-3-ylidenemethyl)-3-methyl-5-(2-morpholin-4-yl-ethyl)-1,5,6,7-tetrahydro-pyrrolo[3,2-c]pyridin-4-one], which IC50 is on record?
Its IC50 is 15300 nM.

For `Cc1c(/C=C2\C(=O)Nc3c(N)cc(F)cc32)[nH]c2c1C(=O)N(CCN1CCOCC1)CC2` [Example 21, 2-(7-Amino-5-fluoro-2-oxo-1,2-dihydro-indol-3-ylidenemethyl)-3-methyl-5-(2-morpholin-4-yl-ethyl)-1,5,6,7-tetrahydro-pyrrolo[3,2-c]pyridin-4-one], which IC50 is on record?
The IC50 was 2100 nM.

How did the IC50 turn out when `Cc1c(/C=C2\C(=O)Nc3cccc(-c4cccc(F)c4F)c32)[nH]c2c1C(=O)N(CCN1CCOCC1)CC2` [Example 44, 2-[4-(2,3-Difluoro-phenyl)-2-oxo-1,2-dihydro-indol-3-ylidenemethyl]-3-methyl-5-(2-morpholin-4-yl-ethyl)-1,5,6,7-tetrahydro-pyrrolo[3,2-c]pyridin-4-one] was run?
Its IC50 is 1320 nM.

Which IC50 does the source give for `COc1ccc2c(c1)/C(=C/c1[nH]c3c(c1C)C(=O)N(CCN1CCOCC1)CC3)C(=O)N2` [Example 45, 2-(5-Methoxy-2-oxo-1,2-dihydro-indol-3-ylidenemethyl)-3-methyl-5-(2-morpholin-4-yl-ethyl)-1,5,6,7-tetrahydro-pyrrolo[3,2-c]pyridin-4-one] here?
The IC50 was 1150 nM.

How did the IC50 turn out when `O=C1Nc2ccc(F)cc2/C1=C/c1[nH]c2c(c1-c1ccc(F)cc1)C(=O)NCC2` [Example 46, 2-(5-Fluoro-2-oxo-1,2-dihydro-indol-3-ylidenemethyl)-3-(4-fluoro-phenyl)-1,5,6,7-tetrahydro-pyrrolo[3,2-c]pyridin-4-one] was run?
Its IC50 is 10500 nM.

For `Cc1cccc2c1/C(=C/c1[nH]c3c(c1C)C(=O)N(CCN1CCOCC1)CC3)C(=O)N2` [Example 51, 3-Methyl-2-(4-methyl-2-oxo-1,2-dihydro-indol-3-ylidenemethyl)-5-(2-morpholin-4-yl-ethyl)-1,5,6,7-tetrahydro-pyrrolo[3,2-c]pyridin-4-one], which IC50 is on record?
The IC50 was 780 nM.

For `Cc1c(/C=C2\C(=O)Nc3ccc(NC=O)cc32)[nH]c2c1C(=O)N(CCN1CCOCC1)CC2` [Example 55, N-{3-[3-Methyl-5-(2-morpholin-4-yl-ethyl)-4-oxo-4,5,6,7-tetrahydro-1H-pyrrolo[3,2-c]pyridin-2-ylmethylene]-2-oxo-2,3-dihydro-1H-indol-5-yl}-formamide], which IC50 is on record?
Its IC50 is 3720 nM.

How did the IC50 turn out when `O=C1Nc2ccc(Cl)cc2/C1=C/c1[nH]c2c(c1-c1ccc(F)cc1)C(=O)NCC2` [Example 58, 2-(5-Chloro-2-oxo-1,2-dihydro-indol-3-ylidenemethyl)-3-(4-fluoro-phenyl)-1,5,6,7-tetrahydro-pyrrolo[3,2-c]pyridin-4-one] was run?
Its IC50 is 3990 nM.
